From patent publication US8188102B2, “Amide derivative for inhibiting the growth of cancer cells” (Hanmi Holdings Co., Ltd., priority 2007, dated 2012) come the findings set out here.

In assay [1] the test system is SW-620 colon/rectal cancer cell line. As to the kind of experiment: Cancer cell growth inhibition, SW-620 (SRB). Conditions: Homo sapiens, SW-620, 72 h, read-out: IC50 (nM) SW-620.
Assay [2] relates to H1975 lung cancer cell line. The assay is described as follows: Cancer cell growth inhibition, H1975 (celltiter). Conditions: Homo sapiens, NCI-H1975, 48 h, read-out: IC50 (nM) H1975.
Method: The medium was removed from each well of the 96-well plate.
In case of H1975, the cells were diluted with a culture medium to a concentration of 50,000 cells/ml. 100 μl of the diluted cell solution was added to each well of a 96-well plate, and, after 1 day, was washed with a mixture of RPMI, 0.1% FBS and 1% penicillin-streptomycin (PS), followed by replacement of the medium. The plate was allowed to be kept overnight and be treated to various concentrations under the same medium condition for 48 hrs. Similarly to an MTT assay, 15 μl of a celltiter one shot solution (Promega) was added to each well, which was incubated for 2 to 3 hrs, and, then, the absorbance at 490 nm was determined.
In assay [3] the test system is SK-Br3 breast cancer cell line. The assay is described as follows: Cancer cell growth inhibition, SK-Br3 (SRB). Conditions: Homo sapiens, SK-BR-3, 72 h, read-out: ID50 (nM) SK-Br3.
Assay [4] concerns A431 skin cancer cell line. The assay is described as follows: Cancer cell growth inhibition, A431 (SRB). Conditions: Homo sapiens, A-431, 72 h, read-out: ID50 (nM) A431.
Another assay concerns the target EGFR T790M kinase (Homo sapiens, UniProt P00533, T790M). As to the kind of experiment: Inhibition of EGFR mutant enzyme (T790M). Conditions: read-out: IC50 (nM) T790M; EGFR T790M kinase.

Sequence of EGFR T790M kinase (P00533 25-1210 T790M): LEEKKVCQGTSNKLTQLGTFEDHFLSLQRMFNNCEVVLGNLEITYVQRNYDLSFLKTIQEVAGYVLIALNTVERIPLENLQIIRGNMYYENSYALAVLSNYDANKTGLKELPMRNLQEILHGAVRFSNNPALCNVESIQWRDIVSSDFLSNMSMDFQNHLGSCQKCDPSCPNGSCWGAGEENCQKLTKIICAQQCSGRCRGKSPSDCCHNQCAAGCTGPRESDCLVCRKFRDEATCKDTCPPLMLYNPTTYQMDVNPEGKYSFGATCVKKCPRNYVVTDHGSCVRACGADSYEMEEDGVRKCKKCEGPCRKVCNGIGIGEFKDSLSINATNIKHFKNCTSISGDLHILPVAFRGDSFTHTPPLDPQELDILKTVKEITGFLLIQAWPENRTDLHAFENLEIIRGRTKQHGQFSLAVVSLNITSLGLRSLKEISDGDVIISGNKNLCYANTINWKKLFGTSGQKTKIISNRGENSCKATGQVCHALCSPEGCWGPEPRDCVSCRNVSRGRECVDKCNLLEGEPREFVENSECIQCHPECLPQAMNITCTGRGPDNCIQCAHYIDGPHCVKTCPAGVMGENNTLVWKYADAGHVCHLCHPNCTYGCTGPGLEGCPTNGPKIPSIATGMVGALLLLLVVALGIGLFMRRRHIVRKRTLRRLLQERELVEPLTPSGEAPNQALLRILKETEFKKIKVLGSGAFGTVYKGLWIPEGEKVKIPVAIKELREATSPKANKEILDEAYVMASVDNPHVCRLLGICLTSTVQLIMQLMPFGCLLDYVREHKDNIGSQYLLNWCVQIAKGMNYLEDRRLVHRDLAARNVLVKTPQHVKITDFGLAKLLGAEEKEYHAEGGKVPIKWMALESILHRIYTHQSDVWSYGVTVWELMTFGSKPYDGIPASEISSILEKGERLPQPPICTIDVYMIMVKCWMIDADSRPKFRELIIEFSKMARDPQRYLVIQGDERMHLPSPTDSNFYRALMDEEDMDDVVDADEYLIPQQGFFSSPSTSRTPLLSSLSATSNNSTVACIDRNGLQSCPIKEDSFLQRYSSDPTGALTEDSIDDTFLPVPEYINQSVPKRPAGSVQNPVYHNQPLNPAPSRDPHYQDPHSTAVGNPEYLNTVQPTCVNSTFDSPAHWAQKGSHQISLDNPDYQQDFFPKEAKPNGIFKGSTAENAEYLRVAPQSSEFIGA

Regarding `CN(C)C/C=C/C(=O)Nc1cc2c(Nc3ccc(F)c(Cl)c3)ncnc2cc1O[C@H]1CCOC1` [BIBW2992, reference compound], in assay [1], the IC50 was determined as 2640 nM.

With `COc1cc2ncnc(Nc3cccc(Cl)c3F)c2cc1OC1CCN(C(=O)CO)CC1` [Ex 1*], the IC50 in assay [2] is greater than 1000 nM; in assay [3], 293 nM; in assay [4] it was 39 nM.

For the molecule `C=CC(=O)N1CC[C@H](Oc2cc3c(Nc4ccc(Cl)c(Cl)c4F)ncnc3cc2OC)C1` [Example 8, 1-((3S)-3-(4-(3,4-dichloro-2-fluorophenylamino)-7-methoxyquinazolin-6-yloxy)pyrrolidin-1-yl)pro-2-pen-1-one], in assay [1], the IC50 is greater than 5000 nM.

Turning to `C=CC(=O)N1CC(Oc2cc3c(Nc4ccc(Cl)c(Cl)c4F)ncnc3cc2OC)C1` [Example 24, 1-(3-(4-(3,4-dichloro-2-fluorophenylamino)-7-methoxyquinazolin-6-yloxy)azetidin-1-yl)pro-2-pen-1-one], the IC50 is greater than 5000 nM in assay [1] and 0.6 nM in assay [3].

For `C=CC(=O)N1CC(Oc2cc3c(Nc4ccc(F)c(Cl)c4)ncnc3cc2OC)C1` [Example 25, 1-(3-(4-(3-chloro-4-fluorophenylamino)-7-methoxyquinazolin-6-yloxy)azetidin-1-yl)pro-2-pen-1-one], the IC50 in assay [1] is greater than 5000 nM; in assay [3], 0.4 nM.

For `C=C(NC(C)=O)C(=O)N1CC(Oc2cc3c(Nc4ccc(F)c(Cl)c4F)ncnc3cc2OC)C1` [Example 31, N-(3-(3-(4-(3-chloro-2,4-difluorophenylamino)-7-methoxyquinazolin-6-yloxy)azetidin-1-yl)-3-oxopro-1-en-2-yl)acetamide], the IC50 in assay [2] was 50 nM; in assay [3], 2.5 nM; in assay [4], 3.1 nM.

On to `COc1cc2ncnc(Nc3ccc(F)c(Cl)c3F)c2cc1OC1CN(C(=O)/C=C\Cl)C1` [Example 32, (Z)-3-chloro-1-(3-(4-(3-chloro-2,4-difluorophenylamino)-7-methoxyquinazolin-6-yloxy)azetidin-1-yl)pro-2-pen-1-one], for which the figures for the IC50 in assay [2], in assay [3] and in assay [4] were 19 nM, 2.2 nM and 2.4 nM, respectively.

As to `C=CC(=O)N1CCC(Oc2cc3c(Nc4ccc(Br)c(C)c4)ncnc3cc2OC)CC1` [Example 39, 1-(4-(4-(4-bromo-3-methylphenylamino)-7-methoxyquinazolin-6-yloxy)piperidin-1-yl)pro-2-pen-1-one], the IC50 came out at 48 nM in assay [2], 7.6 nM at EGFR T790M kinase, 9 nM in assay [3] and 6 nM in assay [4].

As for `C=CC(=O)N1CCC(Oc2cc3c(Nc4cccc(C)c4)ncnc3cc2OC)CC1` [Example 41, 1-(4-(4-(m-toluidino)-7-methoxyquinazolin-6-yloxy)piperidin-1-yl)pro-2-pen-1-one], the IC50 in assay [2] is 236 nM; on EGFR T790M kinase it was 9.3 nM; in assay [3] it was 2 nM; in assay [4], 1 nM.

Regarding `C=CC(=O)N1CCC(Oc2cc3c(Nc4cccc(Br)c4)ncnc3cc2OC)CC1` [Example 42, 1-(4-(4-(3-bromophenylamino)-7-methoxyquinazolin-6-yloxy)piperidin-1-yl)pro-2-pen-1-one], the IC50 in assay [2] is 96 nM; on EGFR T790M kinase, 7.1 nM; in assay [3], 0.7 nM; in assay [4], 1 nM.

Consider `C=CC(=O)N1CCC(Oc2cc3c(Nc4cccc(Cl)c4)ncnc3cc2OC)CC1` [Example 43, 1-(4-(4-(3-chlorophenylamino)-7-methoxyquinazolin-6-yloxy)piperidin-1-yl)pro-2-pen-1-one], for which the IC50 in assay [1] is greater than 5000 nM; in assay [3] it was 0.7 nM.

With `C=CC(=O)N1CCC(Oc2cc3c(Nc4ccc(F)c(Cl)c4)ncnc3cc2OC)CC1` [Example 57, 1-(4-(4-(3-chloro-4-fluorophenylamino)-7-methoxyquinazolin-6-yloxy)piperidin-1-yl)pro-2-pen-1-one], the IC50 in assay [2] is 16 nM; in assay [1], greater than 5000 nM; in assay [3], 2 nM; in assay [4] it was 17 nM.

For `C=CC(=O)N1CC[C@H](Oc2cc3c(Nc4ccc(F)c(Cl)c4F)ncnc3cc2OC)C[C@H]1C(=O)OC` [Example 119, (2S,4S)-methyl 1-acryloyl-4-(4-(3-chloro-2,4-difluorophenylamino)-7-methoxyquinazolin-6-yloxy)piperidin-2-carboxylate], the values for the IC50 in assay [3] and in assay [4] were 6 nM and 5 nM, respectively.

On to `C=CC(=O)N1CC[C@H](Oc2cc3c(Nc4ccc(F)c(Cl)c4F)ncnc3cc2OC)C[C@H]1C(=O)NC` [Example 121, (2S,4S)-1-acryloyl-4-(4-(3-chloro-2,4-difluorophenylamino)-7-methoxyquinazolin-6-yloxy)-N-methylpiperidin-2-carboxamide], for which the IC50 turned out to be 2.5 nM in assay [3] and 2.2 nM in assay [4].

With `C=CC(=O)N1CC[C@H](Oc2cc3c(Nc4ccc(F)c(Cl)c4F)ncnc3cc2OC)C[C@H]1C(=O)NCC` [Example 122, (2S,4S)-1-acryloyl-4-(4-(3-chloro-2,4-difluorophenylamino)-7-methoxyquinazolin-6-yloxy)-N-ethylpiperidin-2-carboxamide], the IC50 in assay [3] was found to be 2.3 nM; in assay [4], 8 nM.

Consider `C=CC(=O)N1CC[C@H](Oc2cc3c(Nc4ccc(F)c(Cl)c4F)ncnc3cc2OC)C[C@H]1C(=O)NCCC` [Example 123, (2S,4S)-1-acryloyl-4-(4-(3-chloro-2,4-difluorophenylamino)-7-methoxyquinazolin-6-yloxy)-N-propylpiperidin-2-carboxamide], for which the IC50 was found to be 5 nM in assay [3] and 12 nM in assay [4].

`C=CC(=O)N1CC[C@H](Oc2cc3c(Nc4ccc(F)c(Cl)c4F)ncnc3cc2OC)C[C@H]1C(=O)NC(C)C` [Example 124, (2S,4S)-1-acryloyl-4-(4-(3-chloro-2,4-difluorophenylamino)-7-methoxyquinazolin-6-yloxy)-N-isopropylpiperidin-2-carboxamide]: the IC50 worked out at 2.8 nM in assay [3] and 7.5 nM in assay [4].

For the molecule `C=CC(=O)N1CC[C@H](Oc2cc3c(Nc4ccc(F)c(Cl)c4F)ncnc3cc2OC)C[C@H]1C(=O)NO` [Example 125, (2S,4S)-1-acryloyl-4-(4-(3-chloro-2,4-difluorophenylamino)-7-methoxyquinazolin-6-yloxy)-N-hydroxypiperidin-2-carboxamide], the IC50 in assay [3] came out at 1 nM; in assay [4], 10 nM.

Turning to `C=CC(=O)N1CC[C@H](Oc2cc3c(Nc4ccc(F)c(Cl)c4F)ncnc3cc2OC)C[C@H]1C(=O)NCCCO` [Example 131, (2S,4S)-1-acryloyl-4-(4-(3-chloro-2,4-difluorophenylamino)-7-methoxyquinazolin-6-yloxy)-N-(3-hydroxypropyl)piperidin-2-carboxamide], the results for the IC50 in assay [3] and in assay [4] were 0.5 nM and 20 nM, respectively.

With `C=CC(=O)N1CC[C@H](Oc2cc3c(Nc4ccc(F)c(Cl)c4F)ncnc3cc2OC)C[C@H]1C(=O)NCCN1CCOCC1` [Example 132, (2S,4S)-1-acryloyl-4-(4-(3-chloro-2,4-difluorophenylamino)-7-methoxyquinazolin-6-yloxy)-N-(2-morpholinoethyl)piperidin-2-carboxamide], the IC50 came out at 0.5 nM in assay [3] and 8.3 nM in assay [4].

`C=CC(=O)N1CC[C@@H](Oc2cc3c(Nc4ccc(F)c(Cl)c4F)ncnc3cc2OC)C[C@@H]1C(=O)O` [Example 134, (2R,4R)-1-acryloyl-4-(4-(3-chloro-2,4-difluorophenylamino)-7-methoxyquinazolin-6-yloxy)piperidin-2-carboxylic acid]: the IC50 in assay [3] was determined as 4 nM; in assay [4] it was 979 nM.

Take `C=CC(=O)N1CC[C@@H](Oc2cc3c(Nc4ccc(F)c(Cl)c4F)ncnc3cc2OC)C[C@@H]1C(=O)NO` [Example 137, (2R,4R)-1-acryloyl-4-(4-(3-chloro-2,4-difluorophenylamino)-7-methoxyquinazolin-6-yloxy)-N-hydroxypiperidin-2-carboxamide]: the figures for the IC50 in assay [3] and in assay [4] were 1.3 nM and 1.7 nM, respectively.

On to `C=CC(=O)N1CC[C@@H](Oc2cc3c(Nc4ccc(F)c(Cl)c4F)ncnc3cc2OC)C[C@@H]1C(=O)NCCS(C)(=O)=O` [Example 138, (2R,4R)-1-acryloyl-4-(4-(3-chloro-2,4-difluorophenylamino)-7-methoxyquinazolin-6-yloxy)-N-(2-(methylsulfonyl)ethyl)piperidin-2-carboxamide], for which the IC50 in assay [3] was determined as 1.3 nM; in assay [4], 2.4 nM.

Consider `C=CC(=O)N1CC[C@@H](Oc2cc3c(Nc4ccc(Cl)c(Cl)c4F)ncnc3cc2OC)C[C@@H]1C(N)=O` [Example 139, (2R,4R)-1-acryloyl-4-(4-(3,4-dichloro-2-fluorophenylamino)-7-methoxyquinazolin-6-yloxy)piperidin-2-carboxamide], for which the IC50 is 1.1 nM in assay [2], greater than 5000 nM in assay [1], 1.1 nM in assay [3] and 0.8 nM in assay [4].

For the molecule `C=CC(=O)N1CC[C@@H](Oc2cc3c(Nc4ccc(Br)cc4F)ncnc3cc2OC)C[C@@H]1C(N)=O` [Example 140, (2R,4R)-1-acryloyl-4-(4-(4-bromo-2-fluorophenylamino)-7-methoxyquinazolin-6-yloxy)piperidin-2-carboxamide], the IC50 turned out to be 0.3 nM in assay [3] and 1.1 nM in assay [4].

For `CS(=O)(=O)CCNCc1ccc(-c2ccc3ncnc(Nc4ccc(OCc5cccc(F)c5)c(Cl)c4)c3c2)o1` [Lapatinib, reference compound], the IC50 is greater than 5000 nM in assay [1], 40 nM in assay [3] and 80 nM in assay [4].
